Measurements taken from ChEMBL document CHEMBL1255533, “PKI-179: an orally efficacious dual phosphatidylinositol-3-kinase (PI3K)/mammalian target of rapamycin (mTOR) inhibitor” (Bioorg Med Chem Lett, 2010).

Assays:
MDA-MB-361 = experiment: Antiproliferative activity against human MDA-MB-361 cells; format: functional, cell-based
PC-3 = experiment: Antiproliferative activity against human PC3 cells; format: functional, cell-based
[1] = target: Phosphatidylinositol 4,5-bisphosphate 3-kinase catalytic subunit alpha isoform (Homo sapiens, UniProt P42336); experiment: Inhibition of PI3K-alpha
[2] = target: Serine/threonine-protein kinase mTOR (Homo sapiens, UniProt P42345); experiment: Inhibition of mTOR
[3] = target: Phosphatidylinositol 4,5-bisphosphate 3-kinase catalytic subunit gamma isoform (Homo sapiens, UniProt P48736); experiment: Inhibition of PI3K-gamma
Chain of Phosphatidylinositol 4,5-bisphosphate 3-kinase catalytic subunit gamma isoform (P48736 whole entry, canonical isoform): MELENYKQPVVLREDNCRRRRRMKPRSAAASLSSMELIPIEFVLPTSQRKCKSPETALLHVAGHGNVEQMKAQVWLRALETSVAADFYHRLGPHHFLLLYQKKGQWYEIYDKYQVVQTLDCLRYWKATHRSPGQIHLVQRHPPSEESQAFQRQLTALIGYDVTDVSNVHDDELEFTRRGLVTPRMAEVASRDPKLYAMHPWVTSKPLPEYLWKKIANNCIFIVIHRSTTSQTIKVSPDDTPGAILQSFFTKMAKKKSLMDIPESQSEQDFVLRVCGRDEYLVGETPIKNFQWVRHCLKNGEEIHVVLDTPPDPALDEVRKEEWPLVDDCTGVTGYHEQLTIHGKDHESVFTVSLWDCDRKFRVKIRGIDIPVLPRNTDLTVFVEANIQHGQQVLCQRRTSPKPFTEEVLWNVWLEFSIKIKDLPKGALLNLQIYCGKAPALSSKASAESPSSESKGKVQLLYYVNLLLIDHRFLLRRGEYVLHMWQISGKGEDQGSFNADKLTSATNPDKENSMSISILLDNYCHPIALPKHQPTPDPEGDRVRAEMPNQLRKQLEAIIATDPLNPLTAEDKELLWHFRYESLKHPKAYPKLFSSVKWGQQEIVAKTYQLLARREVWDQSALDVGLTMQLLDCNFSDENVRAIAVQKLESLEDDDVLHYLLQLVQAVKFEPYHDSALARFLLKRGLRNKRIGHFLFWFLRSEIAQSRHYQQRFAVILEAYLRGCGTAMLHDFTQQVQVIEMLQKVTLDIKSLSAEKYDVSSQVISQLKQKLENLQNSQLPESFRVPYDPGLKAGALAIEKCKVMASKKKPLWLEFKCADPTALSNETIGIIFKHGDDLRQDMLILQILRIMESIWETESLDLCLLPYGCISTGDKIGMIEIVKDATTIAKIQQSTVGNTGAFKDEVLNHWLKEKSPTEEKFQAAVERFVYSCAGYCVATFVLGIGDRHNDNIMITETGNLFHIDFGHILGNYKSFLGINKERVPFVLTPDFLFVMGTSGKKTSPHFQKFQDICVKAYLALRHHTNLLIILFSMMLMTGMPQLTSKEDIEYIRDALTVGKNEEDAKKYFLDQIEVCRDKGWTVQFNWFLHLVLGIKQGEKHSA

Chain of Phosphatidylinositol 4,5-bisphosphate 3-kinase catalytic subunit alpha isoform (P42336 whole entry, canonical isoform): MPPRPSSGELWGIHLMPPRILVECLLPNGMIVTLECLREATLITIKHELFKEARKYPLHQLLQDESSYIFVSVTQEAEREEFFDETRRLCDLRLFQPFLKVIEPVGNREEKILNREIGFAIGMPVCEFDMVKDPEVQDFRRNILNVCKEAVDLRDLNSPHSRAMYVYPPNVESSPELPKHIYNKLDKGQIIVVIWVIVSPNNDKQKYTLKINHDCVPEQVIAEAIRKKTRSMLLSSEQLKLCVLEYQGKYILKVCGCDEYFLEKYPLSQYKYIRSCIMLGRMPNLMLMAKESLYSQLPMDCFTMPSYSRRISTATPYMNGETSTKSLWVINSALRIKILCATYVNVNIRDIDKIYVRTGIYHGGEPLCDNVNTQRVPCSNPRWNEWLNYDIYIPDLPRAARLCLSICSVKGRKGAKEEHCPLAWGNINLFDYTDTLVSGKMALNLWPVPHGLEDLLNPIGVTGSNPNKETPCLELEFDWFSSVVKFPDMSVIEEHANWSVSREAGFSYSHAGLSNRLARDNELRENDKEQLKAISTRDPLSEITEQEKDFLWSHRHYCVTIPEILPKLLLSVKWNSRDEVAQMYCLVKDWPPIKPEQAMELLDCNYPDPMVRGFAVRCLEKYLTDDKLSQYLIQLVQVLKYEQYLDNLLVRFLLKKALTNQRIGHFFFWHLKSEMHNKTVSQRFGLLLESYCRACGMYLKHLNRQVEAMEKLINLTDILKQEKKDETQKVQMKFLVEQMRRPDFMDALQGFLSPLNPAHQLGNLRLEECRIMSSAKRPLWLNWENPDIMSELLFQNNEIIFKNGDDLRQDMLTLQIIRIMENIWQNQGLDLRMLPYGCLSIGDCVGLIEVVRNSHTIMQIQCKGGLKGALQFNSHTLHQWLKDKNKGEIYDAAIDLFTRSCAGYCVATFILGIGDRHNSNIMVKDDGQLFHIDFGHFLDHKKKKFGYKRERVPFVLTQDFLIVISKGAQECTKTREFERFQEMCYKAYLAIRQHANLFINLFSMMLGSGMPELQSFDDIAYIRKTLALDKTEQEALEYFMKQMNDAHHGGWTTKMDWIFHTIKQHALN

SMILES | IC50 (MDA-MB-361) | IC50 (PC-3) | IC50 [1] | IC50 [2] | IC50 [3]
O=C(Nc1ccc(CCO)cc1)Nc1ccc(-c2nc(N3CCOCC3)nc(N3C4CCC3COC4)n2)cc1 | 22 nM | 30 nM | – | – | –
O=C(Nc1ccncc1)Nc1ccc(-c2nc(N3CCOCC3)nc(N3C4COCC3[C@@H](O)C4)n2)cc1 (some centres undefined) | 32 nM | 80 nM | 4 nM | 0.8 nM | 33 nM
COc1ccc(NC(=O)Nc2ccc(-c3nc(N4CCOCC4)nc(N4C5CCC4COC5)n3)cc2)cc1OC | 402 nM | 1250 nM | 13.5 nM | 93.5 nM | 358 nM
O=C(Nc1ccccc1)Nc1ccc(-c2nc(N3CCOCC3)nc(N3C4CCC3COC4)n2)cc1 | 104 nM | 147 nM | 18 nM | 2 nM | 51 nM
O=C(Nc1ccc(F)cc1)Nc1ccc(-c2nc(N3CCOCC3)nc(N3C4CCC3COC4)n2)cc1 | 98 nM | 176 nM | – | 1.9 nM | –
Cc1ccc(NC(=O)Nc2ccc(-c3nc(N4CCOCC4)nc(N4C5CCC4COC5)n3)cc2)cc1 | 167 nM | 301 nM | – | – | –
CN1CCN(Cc2ccc(NC(=O)Nc3ccc(-c4nc(N5CCOCC5)nc(N5C6CCC5COC6)n4)cc3)cc2)CC1 | 14 nM | 31 nM | – | – | –
O=C(Nc1ccc(-c2nc(N3CCOCC3)nc(N3C4CCC3COC4)n2)cc1)Nc1cccnc1 | 73 nM | 98 nM | – | – | –
CN1CCN(c2ccc(NC(=O)Nc3ccc(-c4nc(N5CCOCC5)nc(N5C6CCC5COC6)n4)cc3)cc2)CC1 | 35 nM | 40 nM | – | 1.1 nM | –
